Results from patent EP4703364A1, “QUINOLONE ANALOG AND USE THEREOF” (Horizon Omics Biotech Limited, priority 2023, dated 2024).

Tests used:
[1] = system: DLD1 BRCA2^-/-; experiment: Cell activity assay (CellTiterGlo), BRCA2 gene knockout DLD1 cancer cells; type: cell-based; settings: Homo sapiens, DLD-1, 144 h, read-out: IC50(nM) DLD1 BRCA2^-/-
Experimental: (§1) • (1) Compound Treatment • a) Preparation of Stock Solutions of Compounds Test compounds were dissolved in DMSO at a concentration of 10 mM or 5 mM, and Olaparib was dissolved in DMSO at a concentration of 10 mM. • b) Compound Storage All compounds dissolved in DMSO were stored in a desiccator at room temperature for short-term storage and transferred to a -20°C refrigerator for long-term storage. • c) Preparation of Working Concentrations of Compounds
(§2) Test compounds were serially diluted in DMSO at a 3-fold gradient to prepare 10 concentration gradients, starting from 10 µM.
(§3) Olaparib was serially diluted in DMSO at a 3-fold gradient to prepare 10 concentration gradients, starting from 10 µM.
(§4) The 384-well plate loaded with the compounds was centrifuged at 1000 rpm for 1 minute.
(§5) • a) Cells were added to the culture medium and incubated in a cell culture incubator at 37°C with 5% CO2. • b) 40 µL of BRCA1- or BRCA2-deficient cells were added to a 384-well plate and incubated overnight at 37°C with 5% CO2. • c) The test compounds were prepared at different concentration gradients on the master plate, and 80 nL of the test compounds and Olaparib were taken from the master plate and added to the 384-well plate containing cells, and incubated at 37°C with 5% CO2 for 6 days. • d) CellTiterGlo (30 µL per well) was added to the 384-well plate, and after incubation at room temperature in the dark for 30 minutes, measurement was performed using an Envision plate reader.
(§6) • a) GraphPad Prism software was used to calculate the ICso and plot the activity curves as a function of concentration. • b) The inhibition of cell activity by the compounds was calculated using the following formula: % Inhibition = [1−(Cmpd−Blank)/(DMSO−Blank)]*100 [formula]

[2] = system: UWB1.289 Cells; experiment: Cell activity assay (CellTiterGlo), BRCA1 gene-deficient ovarian cancer cells UWB1.289; type: cell-based; settings: UWB1289, 144 h, BRCA1 gene-deficient ovarian cancer cells UWB1.289, 6 days incubation
Experimental: as §1, §2, §3, §4, §5, §6

[3] = In-vivo pharmacokinetic study in mice (bioavailability testing); settings: mouse, plasma; oral (PO) and intravenous (IV) routes, female Balb/c nude mice
Experimental: Test compounds were administered to mice via oral (PO) and intravenous (IV) routes. The test compounds were dissolved at room temperature. The mice used in the study were Balb/c nude mice, all female, aged 6-8 weeks, with a body weight of 20-30 grams. Before administration, the mice had free access to food and water. Blood samples (approximately 0.03 mL per sample) were collected from the vein at appropriate time points. The samples were placed in tubes containing an anticoagulant and stored on ice until centrifugation. Blood samples were collected at 0.083, 0.25, 0.5, 1, 2, 4, 8, and 24 hours after intravenous administration, and at 0.25, 0.5, 1, 2, 4, 8, and 24 hours after oral administration. The blood samples were centrifuged at approximately 4000 rpm at 2-8 °C for 5 minutes. Plasma samples were then collected and stored frozen at approximately -80 °C until analysis. The LC-MS/MS system was used for bioanalytical work. Table 4. Bioavailability Testing

[4] = target: hERG (Homo sapiens, UniProt Q12809); experiment: hERG cardiotoxicity assay (patch clamp, hERG stably expressed HEK 293 cell line); type: cell-based; settings: hERG current, HEK 293 cells, 5 doses
Experimental: Assay Method: 1) The hERG stably expressed HEK 293 cell line (Cat# K1236) was purchased from Invitrogen. Cells were cultured in a medium consisting of 85% DMEM, 10% FBS, 0.1 mM NEAA, 25 mM HEPES, 100 U/mL penicillin-streptomycin, 5 µg/mL Blasticidin, and 400 µg/mL Geneticin. Cells were passaged approximately three times a week using TrypLE™ Express and maintained at ~40% to ~80% confluency. Before assay, cells were placed on coverslips with 5×10^5 cells per 6-cm cell culture dish and induced with 1 µg/mL doxycycline for 48 hours. 2) The coverslip was removed from the cell culture dish and placed on the microscope stage. A suitable cell was located using a 10× objective. The tip of the electrode was located under the microscope using the 10× objective, and the focus was adjusted to the plane of the cell. Once the tip was in focus, the coarse control of the manipulator was used to advance the electrode downward toward the cell while moving the objective to keep the tip in focus. When directly above the cell, the objective was switched to 40× objective, and the fine control of the manipulator was used to approach the cell surface in small steps. 3) A blank control was first performed to establish a baseline. […] In the presence of the test compounds, the hERG current was recorded for approximately 5 minutes to reach a steady state, followed by capturing 5 scans. For dose-response testing, 5 doses of the test compounds were cumulatively applied to the cells from low to high concentrations. The positive control, dofetilide at a concentration of 150 nM, was applied to each cell, and the hERG current was measured in the test compounds at the highest concentration as a negative control to normalize the percentage of inhibition. To ensure good performance of the cultured cells and operations, cells from the same batch were also tested with 5 doses of dofetilide. Table 5. hERG Toxicity Assay Results

[5] = Toxicity assay in mice, repeated dosing at 50 mg/kg, body weight; type: in vivo; settings: 50 mg/kg PO once every 3 days; for overall condition / clinical symptoms: 21 days; for overall condition / clinical symptoms / effect on mouse body weight: female mice; for effect on mouse body weight: after 21 days of repeated administration
Experimental: Test compounds were administered to mice via the oral (PO) route. The test compounds were dissolved at room temperature. The mice used in the study were all female, and aged 6-8 weeks. Before administration, the mice had free access to food and water. Vehicle control: 50 mM NaH2PO4, pH 4.0, administered once every 3 days. CX-5461 and Compound H-31 were administered once every 3 days at a dose of 50 mg/kg. If the body weight of the mice decreased by more than 15%, administration was suspended until the body weight recovered, after which administration was resumed.

[6] = system: human herpesvirus HCMV-AD169; experiment: Antiviral cell-protective activity, GFP-labeled HCMV-AD169 in MRC5 cells; type: cell-based; settings: for EC50: Human betaherpesvirus 5, 168 h, HCMV-AD169 GFP fluorescence, 7 days, read-out: Virus inhibition EC50; for SI (CC50/EC50): therapeutic index, HCMV-AD169
Experimental: MRC5 cells were seeded in microplates at a specific density and cultured overnight in an incubator at 37 °C with 5% CO2. Serially diluted compounds and GFP-labeled human herpesvirus HCMV-AD169 were added to the microplates. A cell control group (cells without compound treatment or viral infection) and a virus control group (cells infected with the virus but without compound treatment) were set up. The test compounds and control compounds were tested at 8 concentrations, with 3-fold serial dilutions and triplicate wells for each concentration. Meanwhile, the cytotoxicity of the test compounds and control compounds on cells was determined. The cells were cultured in an incubator at 37 °C with 5% CO2 for 7 days. Acumen Cellista was used to detect the GFP fluorescence intensity inside the cells in each well. Cell viability detection reagents CCK-8 or Cell Titer Glo were used to measure cell viability, and the original data were used for calculating the cytotoxicity of the test compounds. GraphPad Prism software was applied to analyze the dose-response curves of the test compounds, calculate the virus inhibition EC50 and cytotoxicity CC50 values, and further calculate the therapeutic index (SI), using the formula SI = CC50/EC50, which was used to evaluate the therapeutic potential of the drug; a higher SI value indicates stronger efficacy of the drug against viruses.

[7] = system: MDA-MB-436 cancer cells; experiment: Inhibition of human-derived cancer in mouse model (MDA-MB-436 subcutaneous tumors); type: in vivo, NOD SCID mice; settings: MDA-MB-436 model, oral
Experimental: The anti-cancer efficacy of the compounds of the present application was evaluated in NOD SCID mice. Female mice aged 6-8 weeks were subcutaneously inoculated with MDA-MB-436 cancer cells to form tumors. When the tumors reached a size of 100-150 mm^3, the mice were randomly divided into groups, with 6 mice in each group. The administration route was oral administration. Olaparib was administered once a day at a dose of 100 mg/kg for a total of 28 days. The vehicle control group and Compound H-31 were administered once every 3 days at a dose of 25 mg/kg.

[8] = Toxicity assay in mice, repeated dosing at 55 mg/kg, body weight; type: in vivo; settings: 55 mg/kg PO once every 3 days, 4 repeated administrations, female Balb/c mice
Experimental: Test compounds were administered to mice via the oral (PO) route. The test compounds were dissolved at room temperature. The mice (Balb/c) used in the study were all female, and aged 6-8 weeks. Before administration, the mice had free access to food and water.
Vehicle control: 50 mM NaH2PO4, pH 4.0. CX-5461 and the H series compounds were administered once every 3 days at a dose of 55 mg/kg, with four doses administered in total.

Sequence of hERG (Q12809 whole entry): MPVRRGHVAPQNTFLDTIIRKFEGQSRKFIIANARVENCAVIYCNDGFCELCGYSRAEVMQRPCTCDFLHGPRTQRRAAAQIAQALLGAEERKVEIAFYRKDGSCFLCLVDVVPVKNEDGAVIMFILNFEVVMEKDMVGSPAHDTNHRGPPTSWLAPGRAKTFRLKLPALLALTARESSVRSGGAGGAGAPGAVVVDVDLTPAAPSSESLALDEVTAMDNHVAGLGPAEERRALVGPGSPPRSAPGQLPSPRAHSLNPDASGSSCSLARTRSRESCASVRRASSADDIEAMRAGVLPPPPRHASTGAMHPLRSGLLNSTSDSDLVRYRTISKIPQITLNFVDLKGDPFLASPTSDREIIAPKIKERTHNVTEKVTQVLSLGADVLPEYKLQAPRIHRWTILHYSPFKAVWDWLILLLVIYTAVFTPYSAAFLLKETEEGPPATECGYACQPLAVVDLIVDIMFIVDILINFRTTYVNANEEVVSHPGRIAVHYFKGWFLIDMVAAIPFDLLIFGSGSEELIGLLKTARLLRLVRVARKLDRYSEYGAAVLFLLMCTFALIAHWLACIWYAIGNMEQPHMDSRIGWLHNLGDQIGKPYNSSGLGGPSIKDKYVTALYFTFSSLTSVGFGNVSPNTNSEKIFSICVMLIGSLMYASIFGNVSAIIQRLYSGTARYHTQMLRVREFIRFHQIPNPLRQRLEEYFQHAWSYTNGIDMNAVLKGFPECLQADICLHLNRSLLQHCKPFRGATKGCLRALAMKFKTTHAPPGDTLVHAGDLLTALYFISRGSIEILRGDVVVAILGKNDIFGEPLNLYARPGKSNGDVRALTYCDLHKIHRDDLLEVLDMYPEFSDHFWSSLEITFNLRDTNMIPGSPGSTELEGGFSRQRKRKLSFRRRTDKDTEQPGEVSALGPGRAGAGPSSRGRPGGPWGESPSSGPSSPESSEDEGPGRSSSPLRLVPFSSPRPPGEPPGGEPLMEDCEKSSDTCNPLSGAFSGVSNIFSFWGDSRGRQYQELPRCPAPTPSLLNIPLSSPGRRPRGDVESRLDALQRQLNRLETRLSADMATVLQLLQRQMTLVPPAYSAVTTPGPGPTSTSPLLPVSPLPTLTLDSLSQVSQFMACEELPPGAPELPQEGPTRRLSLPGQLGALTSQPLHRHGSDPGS

SMILES | IC50 [1] | bioavailability [3] | also measured
COc1cnc(CNC(=O)c2c(=O)c3ccc(N4CCCN(C)CC4)nc3n3c2sc2ccccc23)nc1 [Compound H-16] | 27.5 nM | – | –
Cc1cnc(CNC(=O)c2c(=O)c3ccc(N4CCCN(C)CC4)nc3n3c2sc2ccccc23)cn1 [CX-5461] | 43.9 nM | 33.8% | IC50 [2]: 91.6 nM; IC50 [4]: 5100 nM; overall condition / clinical symptoms [5]: poor overall condition, sluggish movement, and pallor in the tails and toes due to blood loss; effect on mouse body weight [5]: significantly reduced the body weight of the mice; average body weight loss ([5]; administration halted for the entire group): exceeded 10%
CN1CCCN(c2ccc3c(=O)c(C(=O)NCc4ncc(C5CC5)cn4)c4sc5ccccc5n4c3n2)CC1 [Compound H-27] | – | 59.2% | –
CNc1cnc(CNC(=O)c2c(=O)c3ccc(N4CCCN(C)CC4)nc3n3c2sc2ccccc23)nc1 [Compound H-19] | 30.3 nM | – | –
Nc1nc(O)c2ncn(COC(CO)CO)c2n1 [Ganciclovir, reference compound] | – | – | EC50 [6]: 1600 nM; SI (CC50/EC50) [6]: >60.7
[2H]C([2H])([2H])N1CCCN(c2ccc3c(=O)c(C(=O)NCc4ncccn4)c4sc5ccccc5n4c3n2)CC1 [Compound H-31] | 12.8 nM | 43.1% | IC50 [2]: 28.8 nM; overall condition / clinical symptoms [5]: no abnormal clinical symptoms were observed; effect on mouse body weight [5]: weight trends similar to the control group; cancer inhibition rate ([7]; 25 mg/kg once every 3 days): 82.2%; EC50 [6]: 30 nM; SI (CC50/EC50) [6]: >101.7
CCc1cnc(CNC(=O)c2c(=O)c3ccc(N4CCCN(C)CC4)nc3n3c2sc2ccccc23)nc1 [Compound H-21] | – | 66.8% | –
[2H]C1([2H])CN(c2ccc3c(=O)c(C(=O)NCc4ncc(F)cn4)c4sc5ccccc5n4c3n2)C([2H])([2H])C([2H])([2H])N(C)C1([2H])[2H] [Compound H-6] | 23.8 nM | – | –
CN1CCCN(c2ccc3c(=O)c(C(=O)NCc4ncc(C(=O)N(C)C)cn4)c4sc5ccccc5n4c3n2)CC1 [Compound H-15] | – | – | IC50 [4]: > 30000 nM
CN1CCCN(c2ccc3c(=O)c(C(=O)NCc4ncc(C(F)(F)F)cn4)c4sc5ccccc5n4c3n2)CC1 [Compound H-4] | 36 nM | – | deaths [8]: no deaths observed
CN1CCCN(c2ccc3c(=O)c(C(=O)NCc4nccc(C5CC5)n4)c4sc5ccccc5n4c3n2)CC1 [Compound H-28] | – | 41.6% | –
CN1CCCN(c2ccc3c(=O)c(C(=O)NCc4ncc(Cl)cn4)c4sc5ccccc5n4c3n2)CC1 [Compound H-2] | 33.8 nM | 47.2% | –
CSc1cnc(CNC(=O)c2c(=O)c3ccc(N4CCCN(C)CC4)nc3n3c2sc2ccccc23)nc1 [Compound H-18] | – | – | IC50 [4]: 10700 nM
[2H]C([2H])([2H])N1C([2H])([2H])C([2H])([2H])CN(c2ccc3c(=O)c(C(=O)NCc4ncccn4)c4sc5ccccc5n4c3n2)C([2H])([2H])C1([2H])[2H] [Compound H-7] | 16.2 nM | – | –
[2H]C([2H])([2H])N1C([2H])([2H])C([2H])([2H])CN(c2ccc3c(=O)c(C(=O)NCc4ncc(F)cn4)c4sc5ccccc5n4c3n2)C([2H])([2H])C1([2H])[2H] [Compound H-8] | 15.9 nM | – | –
COc1ccnc(CNC(=O)c2c(=O)c3ccc(N4CCCN(C)CC4)nc3n3c2sc2ccccc23)n1 [Compound H-17] | – | 74.6% | deaths [8]: no deaths observed
CCc1ccnc(CNC(=O)c2c(=O)c3ccc(N4CCCN(C)CC4)nc3n3c2sc2ccccc23)n1 [Compound H-22] | 36.7 nM | 40.6% | –
CN1CCCN(c2ccc3c(=O)c(C(=O)NCc4ncc(C#N)cn4)c4sc5ccccc5n4c3n2)CC1 [Compound H-11] | 16.2 nM | – | –
CN1CCCN(c2ccc3c(=O)c(C(=O)NCc4nccc(C#N)n4)c4sc5ccccc5n4c3n2)CC1 [Compound H-12] | 13.7 nM | 49.1% | –
CN1CCCN(c2ccc3c(=O)c(C(=O)NCc4ncc(F)cn4)c4sc5ccccc5n4c3n2)CC1 [Compound H-1] | 37.7 nM | 60.7% | –
CNC(=O)c1cnc(CNC(=O)c2c(=O)c3ccc(N4CCCN(C)CC4)nc3n3c2sc2ccccc23)nc1 [Compound H-13] | – | – | IC50 [4]: > 30000 nM
O=C(c1cc(Cc2n[nH]c(=O)c3ccccc23)ccc1F)N1CCN(C(=O)C2CC2)CC1 [Olaparib, reference compound] | 490 nM | – | IC50 [2]: 716 nM; cancer inhibition rate ([7]; 100 mg/kg once a day for 28 days): 63.4%
